From the NIST ThermoML archive (doi:10.1021/je049595u)

Assays:
[1] = Molar enthalpy of transition or fusion; settings: Crystal
[2] = molar heat capacity at saturation pressure; settings: Crystal, Vacuum adiabatic calorimetry

Cc1cccc2cccnc12 [8-methylquinoline]
Settings | mass density [kg/m3] | vapor or sublimation pressure [kPa]
315.61 K, Liquid, Inclined piston gauge | – | 0.0242
324.98 K, Liquid, Inclined piston gauge | – | 0.0466
334.99 K, Liquid, Inclined piston gauge | – | 0.0905
344.98 K, Liquid, Inclined piston gauge | – | 0.1674
354.98 K, Liquid, Inclined piston gauge | – | 0.2975
364.98 K, Liquid, Inclined piston gauge | – | 0.5091
374.98 K, Liquid, Inclined piston gauge | – | 0.8418
384.98 K, Liquid, Inclined piston gauge | – | 1.35
393.84 K, Liquid, Twin ebulliometer | – | 2.001
394.97 K, Liquid, Inclined piston gauge | – | 2.102
400.6 K, Liquid, Twin ebulliometer | – | 2.665
404.97 K, Liquid, Inclined piston gauge | – | 3.19
410.7 K, Liquid, Twin ebulliometer | – | 4.004
418.2 K, Liquid, Twin ebulliometer | – | 5.336
429.38 K, Liquid, Twin ebulliometer | – | 8.002
437.77 K, Liquid, Twin ebulliometer | – | 10.67
444.5 K, Liquid, Twin ebulliometer | – | 13.31
451.61 K, Liquid, Twin ebulliometer | – | 16.67
457.46 K, Liquid, Twin ebulliometer | – | 19.93
465.16 K, Liquid, Twin ebulliometer | – | 25.02
465.17 K, Liquid, Twin ebulliometer | – | 25.02
472.94 K, Liquid, Twin ebulliometer | – | 31.18
480.74 K, Liquid, Twin ebulliometer | – | 38.57
488.6 K, Liquid, Twin ebulliometer | – | 47.36
496.51 K, Liquid, Twin ebulliometer | – | 57.8
504.49 K, Liquid, Twin ebulliometer | – | 70.12
512.5 K, Liquid, Twin ebulliometer | – | 84.53
520.56 K, Liquid, Twin ebulliometer | – | 101.31
528.68 K, Liquid, Twin ebulliometer | – | 120.8
536.85 K, Liquid, Twin ebulliometer | – | 143.23
545.06 K, Liquid, Twin ebulliometer | – | 169
553.32 K, Liquid, Twin ebulliometer | – | 198.45
553.33 K, Liquid, Twin ebulliometer | – | 198.45
561.65 K, Liquid, Twin ebulliometer | – | 232
570.01 K, Liquid, Twin ebulliometer | – | 270
769.9 K, Gas, Measured as part of TC determination by DSC | 160.5 | –
775.8 K, Liquid, Measured as part of TC determination by DSC | 444.6 | –
784 K, Gas, Measured as part of TC determination by DSC | 244.7 | –
785.1 K, Liquid, Measured as part of TC determination by DSC | 349.8 | –
786 K, Gas, Measured as part of TC determination by DSC | 318.7 | –

Settings | Critical temperature [K] | mass density [kg/m3] | molar heat capacity [J/K/mol]
323.14 K, Liquid | – | 1049.3 | –
348.13 K, Liquid | – | 1029 | –
373.12 K, Liquid | – | 1009.5 | –
398.12 K, Liquid | – | 988.5 | –
423.11 K, Liquid | – | 967.8 | –
448.11 K, Liquid | – | 947.5 | –
473.11 K, Liquid | – | 926.6 | –
498.11 K, Liquid | – | 904 | –
Liquid, DTA | 787 | – | –
[2], 5 K | – | – | 0.45
[2], 6.105 K | – | – | 0.81
[2], 7.027 K | – | – | 1.26
[2], 8.004 K | – | – | 1.86
[2], 9.004 K | – | – | 2.64
[2], 10 K | – | – | 3.53
[2], 10.06 K | – | – | 3.58
[2], 11.21 K | – | – | 4.73
[2], 12.47 K | – | – | 6.05
[2], 13.87 K | – | – | 7.66
[2], 15.42 K | – | – | 9.47
[2], 17.14 K | – | – | 11.51
[2], 19.04 K | – | – | 13.71
[2], 20 K | – | – | 14.8
[2], 21.13 K | – | – | 16.07
[2], 23.44 K | – | – | 18.64
[2], 25.98 K | – | – | 21.32
[2], 28.81 K | – | – | 24.19
[2], 30 K | – | – | 25.37
[2], 31.94 K | – | – | 27.23
[2], 35.44 K | – | – | 30.44
[2], 39.36 K | – | – | 33.85
[2], 40 K | – | – | 34.39
[2], 43.73 K | – | – | 37.46
[2], 48.59 K | – | – | 41.21
[2], 50 K | – | – | 42.28
[2], 52.43 K | – | – | 44.08
[2], 53.97 K | – | – | 45.21
[2], 57.17 K | – | – | 47.47
[2], 59.94 K | – | – | 49.35
[2], 60 K | – | – | 49.4
[2], 62.72 K | – | – | 51.23
[2], 69 K | – | – | 55.27
[2], 70 K | – | – | 55.87
[2], 75.99 K | – | – | 59.46
[2], 80 K | – | – | 61.81

Settings | Molar enthalpy of transition or fusion [kcal/mol] | Triple point temperature [K]
Crystal | – | 246.94
[1] | 2.565 | –
